Values quoted from earlier work as cited in patent US20080114046A1, “Pharmaceutical Combination of Angiotensin II Antagonists and Angiotensin I Converting Enzyme Inhibitors” (Boehringer Ingelheim International GmbH, priority 2002, published 2008).

Experiments:
[1] = first clinical trials
[2] = normotensive patients with diabetic nephropathy; losartan added to enalapril
[3] = HOPE study, treatment with ACE inhibitor ramipril

Compound	renoprotective effect [1]	antiproteinuric effect of enalapril [2]	reduction of the risk of the combined primary cardiovascular outcome [3]
CCCCC1=NC2(CCCC2)C(=O)N1Cc1ccc(-c2ccccc2-c2nnn[nH]2)cc1 [irbesartan]	renoprotective effect	–	–
CCCCc1nc(Cl)c(CO)n1Cc1ccc(-c2ccccc2-c2nn[nH]n2)cc1 [losartan]	renoprotective effect	potentiated	–
CCOC(=O)[C@H](CCc1ccccc1)N[C@@H](C)C(=O)N1[C@H](C(=O)O)C[C@@H]2CCC[C@@H]21 [ramipril]	–	–	22%
